Here are results for 12 molecules from PMC5831498 (Virus research, 2018).

In data set [1] the test system is Human influenza A virus (A/WS/33 [H1N1]). Nature of the data set: microbe, parasite or virus in culture. Format: cell-based. Particulars: for EC50: read-out: EC50 A/WS/33; for inhibition of replication of A/WS/33 (in words): MDCK cells; for SI for A/WS/33 (selectivity index): CC50/EC50, MDCK cells.
In data set [2] the test system is Swine influenza A virus (A/swine/OH/511445/2007 [H1N1], Oh7). Kind of data set: microbe, parasite or virus in culture. The class given is cell-based. Particulars: read-out: EC50 A/swine/OH/2007.
Data set [3] concerns influenza B virus (B/Lee/40). Kind of data set: Antiviral assay, virus titration by TCID50, MDCK cells. The class given is cell-based. The note with it: for EC50: Influenza B virus, MDCK, read-out: EC50 B/Lee/40; for inhibition of replication of B/Lee/40 (in words): MDCK cells.
Another data set has as its target PDI1 enzyme (Homo sapiens, UniProt P07237). Nature of the data set: ProteoStat PDI assay. The class given is biochemical. The note with it: for effect on PDI1 activity (in words): at 10 or 50 µM; for PDI1 activity relative to mock: mock = 100, SD in parentheses.
Another data set concerns Group A rotavirus SA11. Nature of the data set: Rotavirus replication in MA104 cells. Format: cell-based.
Data set [4] is described as follows: Nonspecific cytotoxicity, CytoTox 96 assay. The class given is cell-based, canine. The note with it: dog, MDCK cells.
For the next data set, the system named is MDCK cells. Nature of the data set: Nonspecific cytotoxicity, CytoTox 96 assay. The class given is cell-based, canine. The note with it: 24 hr treatment, SD in parentheses.
A further data set deals with A/WS/33. The class given is cell-based, influenza A virus.
Where [5] appears, read: Influenza A virus, H1N1, MDCK, in Sus scrofa.

Read-outs that look alike come from different tables or passages of the source. Marks after values point to notes of the source that are not given here. Bridge positions count the residues as written; N and C are the ends. Square brackets hold non-standard residues; d marks the D form. Peptide text beside a SMILES is read from it. * marks the point of attachment. Ileψ(thiazoline)Cys = CC[C@H](C)[C@H](N)C1=N[C@H](C(=O)*)CS1; dOrn = NCCC[C@@H](N)C(=O)O

PDI1 enzyme, sequence (P07237 18-508): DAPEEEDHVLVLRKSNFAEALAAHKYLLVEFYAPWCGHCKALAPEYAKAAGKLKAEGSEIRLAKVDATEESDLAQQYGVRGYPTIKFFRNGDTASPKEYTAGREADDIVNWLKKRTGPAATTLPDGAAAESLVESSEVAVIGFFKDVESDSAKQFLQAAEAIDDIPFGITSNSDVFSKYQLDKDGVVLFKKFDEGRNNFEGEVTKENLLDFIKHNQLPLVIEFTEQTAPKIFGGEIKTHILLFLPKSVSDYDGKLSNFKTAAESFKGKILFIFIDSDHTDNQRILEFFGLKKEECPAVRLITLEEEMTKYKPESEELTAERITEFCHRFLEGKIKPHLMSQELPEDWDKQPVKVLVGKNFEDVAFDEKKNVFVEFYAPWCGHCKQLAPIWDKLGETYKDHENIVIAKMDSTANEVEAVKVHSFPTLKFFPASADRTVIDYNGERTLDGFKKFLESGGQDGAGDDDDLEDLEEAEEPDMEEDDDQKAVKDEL

As for `COC1=C2C[C@@H](C)C[C@H](OC)[C@H](O)[C@@H](C)/C=C(\C)[C@H](OC(N)=O)[C@@H](OC)/C=C\C=C(/C)C(=O)NC(=CC1=O)C2=O` [GDA, geldanamycin], the EC50 was greater than 10 µM in data set [1] (Influenza A virus, H1N1, MDCK); greater than 10 µM in data set [2] (setting [5]); greater than 10 µM in data set [3]; less than 1 µM in the data set with Group A rotavirus SA11 (Rotavirus A, MA104, read-out: EC50 rotavirus SA11 replication). Besides, the “inhibition of replication of A/WS/33 (in words)” value in data set [1] is listed as “did not show any inhibitory activity”. Besides, the “inhibition of replication of B/Lee/40 (in words)” value in data set [3] was “did not show any inhibitory activity”. For the same molecule, the “effect on PDI1 activity (in words)” value at PDI1 enzyme is “little effect”. The “PDI1 activity relative to mock” value on PDI1 enzyme (compound at 10 µM) is 102 (5) %; on PDI1 enzyme (compound at 50 µM), 96 (2) %.
As for `CC[C@H](C)[C@H](N)C1=N[C@H](C(=O)N[C@@H](CC(C)C)C(=O)N[C@H](CCC(=O)O)C(=O)N[C@H](C(=O)N[C@H]2CCCCNC(=O)[C@H](CC(N)=O)NC(=O)[C@@H](CC(=O)O)NC(=O)[C@H](Cc3cnc[nH]3)NC(=O)[C@@H](Cc3ccccc3)NC(=O)[C@H]([C@@H](C)CC)NC(=O)[C@@H](CCCN)NC2=O)[C@@H](C)CC)CS1` [Bacitracin A, bacitracin A] ({Ileψ(thiazoline)Cys}-L[dE]IK[dOrn]I[dF]H[dD]N; lactam 4-C), the EC50 in data set [1] (Influenza A virus, H1N1, MDCK) is greater than 500 µM; in data set [2] (setting [5]), greater than 500 µM; in data set [3], greater than 500 µM. The “PDI1 activity relative to mock” value is listed as 81 (3) ^* % on PDI1 enzyme (compound at 10 µM) and 53 (12) ^* % at PDI1 enzyme (compound at 50 µM).
Turning to `CCOC(=O)C1=C[C@@H](OC(CC)CC)[C@H](NC(C)=O)[C@@H](N)C1` [Oseltamivir, oseltamivir phosphate], the “SI for A/WS/33 (selectivity index)” value in data set [1] is recorded as greater than 660. In addition, the EC50 in data set [1] (Influenza A virus, H1N1, MDCK) is 0.15 µM; in data set [2] (setting [5]), 0.5 µM; in data set [3], 1.1 µM. The “inhibition of replication of A/WS/33 (in words)” value in data set [1] is “potently inhibited”. Moreover, the “inhibition of replication of B/Lee/40 (in words)” value in data set [3] is “potently inhibited”. Further, in data set [4], the CC50 at 24 h was greater than 100 µM. Besides, on PDI1 enzyme, the “effect on PDI1 activity (in words)” value was “little effect”. In addition, the “PDI1 activity relative to mock” value on PDI1 enzyme (compound at 10 µM) is reported as 103 (6) %; at PDI1 enzyme (compound at 50 µM) it was 95 (5) %.
As for `NC12CC3CC(CC(C3)C1)C2` [Amantidine, amantadine], the “SI for A/WS/33 (selectivity index)” value in data set [1] is recorded as greater than 83.3. In addition, the EC50 was 1.2 µM in data set [1] (Influenza A virus, H1N1, MDCK); 1.4 µM in data set [2] (setting [5]); greater than 100 µM in data set [3]. Moreover, the “inhibition of replication of A/WS/33 (in words)” value in data set [1] is on record as “potently inhibited”. This molecule also yielded a CC50 at 24 h in data set [4] greater than 100 µM. The “effect on PDI1 activity (in words)” value on PDI1 enzyme is “little effect”. For the same molecule, the entries for the “PDI1 activity relative to mock” value at PDI1 enzyme (compound at 10 µM) and on PDI1 enzyme (compound at 50 µM) were 102 (5) % and 103 (4) %, respectively.
For `C=CCNC1=C2C[C@@H](C)C[C@H](OC)[C@H](O)[C@@H](C)/C=C(\C)[C@H](OC(N)=O)[C@@H](OC)/C=C\C=C(/C)C(=O)NC(=CC1=O)C2=O` [17-AAG, 17-N-Allylamino-17-demethoxygeldanamycin], in data set [1], the “inhibition of replication of A/WS/33 (in words)” value is recorded as “did not show any inhibitory activity” and the EC50 is greater than 10 µM. Moreover, the “inhibition of replication of B/Lee/40 (in words)” value in data set [3] is “did not show any inhibitory activity”. The EC50 in the data set on Group A rotavirus SA11 (read-out: EC50 rotavirus SA11 replication, MA104 cells) is less than 1 µM.
Regarding `CC(C)(C)N([O])C(C)(C)C` [Di-tert-butyl nitroxide (DTBN), Di-tert-butyl nitroxide], the EC50 in data set [1] was 210 µM. Besides, in the data set with MDCK cells, the CC50 was greater than 1000 µM. In addition, the “PDI1 activity relative to mock” value was 67 (6) ^* % at PDI1 enzyme (compound at 10 µM) and 25 (9) ^* % at PDI1 enzyme (compound at 50 µM).
As for `O=c1c(O[C@@H]2O[C@H](CO)[C@@H](O)[C@H](O)[C@H]2O)c(-c2ccc(O)c(O)c2)oc2cc(O)cc(O)c12` [Isoquercetin (IQ), isoquercetin], the “SI for A/WS/33 (selectivity index)” value in data set [1] was found to be 90. The EC50 was found to be 0.5 µM in data set [1] (Influenza A virus, H1N1, MDCK); 1.2 µM in data set [2] (setting [5]); 1.2 µM in data set [3]. The molecule also had a CC50 at 24 h in data set [4] of 45.5 µM. For the same molecule, the “PDI1 activity relative to mock” value on PDI1 enzyme (compound at 10 µM) is given as 32 (5) ^* %; at PDI1 enzyme (compound at 50 µM), 13 (8) ^* %.
In the case of PACMA31, the EC50 in data set [1] was 6.1 µM. In addition, the CC50 in the data set with MDCK cells came to 12.5 µM. Besides, the “PDI1 activity relative to mock” value on PDI1 enzyme (compound at 10 µM) is 91 (3) %; at PDI1 enzyme (compound at 50 µM), 71 (9) ^* %. The “reduction of viral proteins (NP or M1), Western blot” value in the data set on A/WS/33 was “dose-dependent”.
Take `C/C1=C/[C@H](O)C(C)(C)CCC/C(C)=C/C[C@H]1OC(=O)c1ccc(O)cc1` [Juniferdin, juniferdin]: the “SI for A/WS/33 (selectivity index)” value in data set [1] is listed as 8.8. For the same molecule, the EC50 is 1.5 µM in data set [1] (Influenza A virus, H1N1, MDCK); 1.8 µM in data set [2] (setting [5]); 3.1 µM in data set [3]. In addition, in data set [4], the CC50 at 24 h turned out to be 13.2 µM. Further, the entries for the “PDI1 activity relative to mock” value at PDI1 enzyme (compound at 10 µM) and on PDI1 enzyme (compound at 50 µM) were 41 (5) ^* % and 6 (4) ^* %, respectively. Also, the “reduction of viral proteins (NP or M1), Western blot” value with A/WS/33 is on record as “dose-dependent”.
Take `CC(=O)Oc1ccccc1C(=O)Nc1ncc([N+](=O)[O-])s1` [NTZ, nitazoxanide]: the “SI for A/WS/33 (selectivity index)” value in data set [1] worked out at 16. Also, the EC50 is 0.8 µM in data set [1] (Influenza A virus, H1N1, MDCK); 1.3 µM in data set [2] (setting [5]); 1.5 µM in data set [3]. In data set [4], this molecule returned a CC50 at 24 h of 12.8 µM. For the same molecule, the “PDI1 activity relative to mock” value on PDI1 enzyme (compound at 10 µM) is reported as 81 (2) ^* %; on PDI1 enzyme (compound at 50 µM), 65 (4) ^* %.
On to `COC(=O)C1(C)c2[nH]c3ccccc3c2CCN1C(=O)CCl` (centres unmarked) [16F16], for which the figures for the EC50 in data set [1] and in data set [2] were 5.1 µM and 5.8 µM, respectively. The CC50 with MDCK cells is 15 µM. The figures for the “PDI1 activity relative to mock” value on PDI1 enzyme (compound at 10 µM) and at PDI1 enzyme (compound at 50 µM) were 89 (6) % and 59 (6) ^* %, respectively.
As for “Epigallocatechin 3-gallate [Epigallocatechin 3-gallate (EGCG)]”, the EC50 in data set [1] came to 4.5 µM. The CC50 with MDCK cells came to 35.4 µM. Moreover, the “PDI1 activity relative to mock” value is 68 (7) ^* % at PDI1 enzyme (compound at 10 µM) and 28 (5) ^* % on PDI1 enzyme (compound at 50 µM).

The term CC50 denotes the concentration at which the toxic effect on the cells reaches its halfway point.
